# Results: ChEMBL document CHEMBL3507680, “University of Dundee, Gates Library screen for HepG2 cell viability”
# Assay: Human HepG2 cell viability assay in 384 well format
# Type: toxicity, cell-based
# Design: dose 125 nL, time 70.5 hour; cytotoxicity at 70.5 h: concentration not given beside the values
# Conditions: HepG2 cells, read-out: Inhibition
row,Structure (SMILES),cytotoxicity at 70.5 h
1,COc1cc(CCC(=O)NC2CCCN(C)C2)ccc1OCC(F)(F)F (stereo unspecified),-7.07%
2,O=S1(=O)COCCN1Cc1ccc(Cl)c(Cl)c1,-6.71%
3,CSCC(=O)N(Cc1ccccn1)Cc1ccccc1C,-4.08%
4,CSc1ncccc1C(=O)N1C[C@H]2CC[C@@H]1CN(c1cnccn1)C2,-10.6%
5,COCCN1C[C@H]2[C@@H](C1)N(C(=O)c1cccc(OC)c1)CC[C@H]2OC,-2.65%
6,COc1ccnc(N2CCN(C(=O)c3cccc(C#N)c3)CC2)n1,-7.44%
7,Cc1cccc(NC(=O)NCC2(N3CCOCC3)CCSC2)c1 (stereo unspecified),3.35%
8,CN1C(=O)CCC12CCN(S(=O)(=O)c1ccccc1)CC2,-13.4%
9,CCOC(=O)CNc1nc(C(C)(C)C)nc2c1cnn2C,1.33%
10,CC(C)(CNC1CCCN(Cc2ccccn2)C1)CN1CCOCC1 (stereo unspecified),-12.6%
11,CN(CC1CCOC1)S(=O)(=O)c1cccc(C(=O)N2CCOCC2)c1 (stereo unspecified),-4.27%
12,Cc1cn(Cc2ccc(F)cc2)nc1N,-1.4%
13,COC(=O)C1CCN(C(=O)c2ccc(NS(C)(=O)=O)c(C)c2)CC1,-9.09%
14,O=C(c1cc(-n2cccn2)ccn1)N(CC1CCC1)CC(F)(F)F,-3.45%
15,CC1(C)CN(S(=O)(=O)N2CCCC2)CC1c1ccccc1 (stereo unspecified),-6.08%
16,Cc1ccnc(NC(=O)C2CCN(CCCc3cn[nH]c3)CC2)c1,-14.2%
17,CCC(=O)N1CCOC(c2cc(Nc3nncs3)cc(C)n2)C1 (stereo unspecified),-5.24%
18,CN(C)C(=O)N1CC[C@]2(O)CCN(C(=O)c3ccc(C#N)nc3)C[C@@H]2C1,3.74%
19,Cc1ocnc1C(=O)N(C)[C@@H]1CCC[C@@H](N2CCCC2)[C@@H]1O,25.2%
20,CN(CC(=O)N1CCCC1c1noc(C2CC2)n1)C1CC1 (stereo unspecified),-8.76%
21,CC(=O)N1CCC2(CCCN(S(=O)(=O)c3ccc(F)cc3)C2)C1 (stereo unspecified),5.56%

row,Structure (SMILES),cytotoxicity at 70.5 h
1,Cc1cc(C)cc(CNc2ccc(C(=O)NC(C)CO)cc2)c1 (stereo unspecified),-1.12%
2,CCN(Cc1ccc2c(c1)OCO2)C(=O)c1ccc(=O)n(C)c1,-0.838%
3,COCc1ncc(CN2CCC(Oc3ccccc3OC)CC2)cn1,-10.9%
4,CN(C)S(=O)(=O)N1CCN(c2cc(-n3cccc3)ncn2)CC1,-6%
5,Cc1cc(-c2cnn(CCNC(=O)c3cc[nH]n3)c2C2CC2)on1,-0.801%
6,Cc1nc2cc(O)nn2c(C)c1CCC(=O)N(C)CCC(C)C,-7.92%
7,Cc1nnc(CCNC(=O)Nc2ccc(S(C)(=O)=O)cc2)[nH]1,35.6%
8,Cc1nc(C)n(CC2CCCN2Cc2cn3ccsc3n2)n1 (stereo unspecified),3.39%
9,O=S(=O)(Cc1ccccc1)c1nnc(N2CCCC2)s1,-2.76%
10,Cc1cn2c(n1)CCC(NC(=O)c1c[nH]c(C)n1)C2 (stereo unspecified),-5.66%
11,COCC1COCCC12CCN(S(=O)(=O)c1cccnc1)CC2 (stereo unspecified),-1.01%
12,Cc1cc(-c2nn(C)c(Cl)c2CN2CCOC(C(=O)O)C2)no1 (stereo unspecified),13.8%
13,Cc1oncc1C(=O)N1CC2CC1(C(=O)N1CCCC1)C2,8.06%
14,CS(=O)(=O)Cc1ccc(Cl)cc1NCc1ccccc1F,27.6%
15,CS(=O)(=O)N1CCC(CNc2cc(Cl)ccc2C#N)CC1,-6.86%
16,CNC(=O)[C@@]12CCCN(c3ncccn3)[C@@H]1CN(c1ncc(C)cn1)C2,-4.37%
17,O=C(Nc1cnn(CC(=O)N2CCCO2)c1)c1ccccc1,8.2%
18,COc1ccc(NC(=O)c2ccco2)c(N2CCN(C(C)=O)CC2)n1,-11.7%
19,O=C(NCc1ccccn1)C1CN(c2nc3ccccc3s2)CCN1 (stereo unspecified),-8.77%
20,O=C1NCc2ccccc2CC12CCN(Cc1ccncc1Cl)C2 (stereo unspecified),-3.37%
21,COc1cc(C(C)NCc2ncccc2C)ccc1SC(F)F (stereo unspecified),52.4%

row,Structure (SMILES),cytotoxicity at 70.5 h
1,CNCC(=O)N1CCCC(c2ccnc(Nc3cnccn3)n2)C1 (stereo unspecified),-9.17%
2,CCCc1nnsc1C(=O)NCC1CCN(c2ncccn2)CC1,-13.9%
3,O=C1CN(c2cc(-c3ccccc3F)nc3ccnn23)CCCN1,-14.6%
4,O=C(N1CCCCC1)N1CCN(CC(O)c2ccc(F)cc2)CC1 (stereo unspecified),-7.9%
5,CCn1cnnc1CNC(=O)c1cc(Cl)c(I)cc1OC,-7.1%
6,CC(C)Nc1nc(N2CCCC2)nc2c1CN(S(C)(=O)=O)CC2,-1.08%
7,CN(c1ncccc1C#N)C1CCN(Cc2ccncc2)CC1,-3.31%
8,Cc1nc(CN2CCN(CC3CCOC3)Cc3cccnc32)cs1 (stereo unspecified),-8.4%
9,CC[C@@H]1N(Cc2ccco2)CCC[C@]12CCC(=O)N2C,12.7%
10,Cc1cnc(C(=O)N2CCC3(CCN3Cc3ccc(F)cc3)C2)cn1 (stereo unspecified),-0.513%
11,CCOC(C)c1noc(CN2CCCNCC2)n1 (stereo unspecified),-5.58%
12,CC(C)CN1CCNC(=O)C12CCN(C(=O)c1ccccn1)CC2,9.35%
13,CCN1CC2(CC1=O)CN(C(=O)c1ccco1)CCN(C(=O)C(C)C)C2 (stereo unspecified),0.454%
14,CCc1ccc(-c2cn(CCSc3ncn[nH]3)nn2)nc1,-1.59%
15,CC(C(=O)N1CCc2sccc2C1)N1CCCN(C2CC2)CC1 (stereo unspecified),-10.7%
16,CC(OCC1CC1)C(=O)NCc1cccc(CN2CCCC2=O)c1 (stereo unspecified),1.05%
17,Cc1ccc(N2CCC3(CCN(Cc4ccccn4)CC3)CC2)nn1,-11.7%
18,N#Cc1cccc(C(=O)N2CCc3ncc(Cn4cccn4)n3CC2)c1,8.26%
19,Cc1nc(CN(Cc2ccncc2)C2CCN(C)CC2)cs1,8.24%
20,CN(C)c1ncnc2c1CCN(S(=O)(=O)c1cccc3nsnc13)C2,-5.63%
21,CCN1C(=O)C2(CCOCC2)c2cc(NC(=O)c3ccco3)ccc21,-8.84%

row,Structure (SMILES),cytotoxicity at 70.5 h
1,COCCn1cc(NC(=O)NC(C)Cc2c(F)cccc2F)cn1 (stereo unspecified),12.3%
2,CN(CCn1nc2ccccn2c1=O)CC(=O)N(C)C1CCCCC1,2.32%
3,Cc1ccc(C)c(CN(C)Cc2nnc3ccccn23)c1,14.1%
4,CCn1c(CN(C)C(=O)c2ccc(O)nc2)nc2ccccc21,-5.75%
5,c1cnc(Nc2cc(CCC3CCCNC3)ccn2)cn1 (stereo unspecified),-4.31%
6,COc1cc2c(cc1OC)CN(C(C(=O)O)c1c(C)nn(C)c1C)CC2 (stereo unspecified),-6.71%
7,CCOc1ccccc1C(=O)NS(=O)(=O)c1ccc2c(c1)OCCCO2,-4.55%
8,CN1N=C(C(=O)N2CCCCC2)S(=O)(=O)c2ccccc21,1.74%
9,CS(=O)(=O)N1CC2(CCCN(CC3CC3)C2)Cc2ccccc21 (stereo unspecified),-3.95%
10,O=C(NCC1(O)CCSC1)c1ccn(-c2ccccc2F)n1 (stereo unspecified),-15.6%
11,CNS(=O)(=O)c1cccc(C(=O)N(C)Cc2ccsc2)c1,-7.55%
12,CC1(C)CC(N(Cc2cccnc2)Cc2cccnc2)CC(C)(C)N1,-1.63%
13,Cn1ccnc1CN1CCN2C[C@H](OCc3cccnc3)C[C@H]2C1,-2.68%
14,CN(c1ncnc2ccccc12)C1CCCN(c2cccnn2)C1 (stereo unspecified),-12.6%
15,CCc1ccc(CNC(=O)N2CCN(Cc3cc(C)on3)CC2)s1,-4.93%
16,CS(=O)(=O)CCN1CCCC1c1noc(C2CC2)n1 (stereo unspecified),0.883%
17,COc1ccc(CNC(=O)NCc2c(C)cc(C)[nH]c2=O)cc1,-11.9%
18,Cc1cc(C)n(-c2cncc(N3CCN(C(=O)CN(C)C)CC3)n2)n1,-11.6%
